The source of these data is paper PMC3406249 (Hepatology (Baltimore, Md.), 2012).

The subject of data set [1] is HCVpp (H77). Particulars: 50% cell culture inhibitory concentration, HCVpp entry; mean ± SD.
Data set [2] relates to JFH-1 HCVcc. The following applies: 12 h.
For data set [3] the following is noted: MTT assay; estimated.

No end group written: not given here.

Broadly, the IC50 is the midpoint of a concentration-inhibition curve.

GAIVSTALPQWRIYSYAG [CL58.6] came in with an IC50 in data set [1] of 23.8 ± 2.1 µM.
In the case of MANAGLQLLGFILAFLGW [CL58], the half-inhibitory concentration (IC50) in data set [2] came to 2 µM. Also, in data set [3], the “50% cytotoxic concentration relative to IC50” value is reported as ~100 fold.
